From patent US11197865B2, “Applications for promethazine in preparing anti-liver cancer and/or colon cancer and/or lung cancer products” (SHANGHAI JIAO TONG UNIVERSITY, priority 2015, dated 2021)
pEC50, pIC50: −log10 of the molar value.

Assays:
Format in all cases: cell-based
HUH-7 liver cancer cells = test: CellTiter-Glo luminescent cell viability assay, HUH-7 liver cancer cells; conditions: Homo sapiens, 72 hours
Text: (§1) In example 1, CELLTITER-GLO was used to test promethazine against liver cancer and/or colon cancer. n) HUH-7 cells and LoVo cells were handled as described above, and HUH-7 96-well cell culture plates and LoVo 96-well cell culture plates were obtained, respectively. The complete medium for HUH-7 cells was DMEM (a live product), Cat #11995081, with a cells/well density of 6000. 2. […] The final concentrations (μM) of the analyte drug in wells 2-10 in FIG. 1 are, in order: 100, 31.64557, 10.01442, 3.16912, 1.002886, 0.317369, 0.100433, 0.031783, 0.010058; B. CELLTITER-GLO Luminescent Cell Viability Assay System a) Before testing, the HUH-7 96-well drug screening plate and the LoVo 96-well drug screening plate described in 3 above were stabilized to room temperature for 20-30 minutes. c) 100 μl of CellTiter-Glo reagent (prepared as described in 1 above) was added to all drug screening plates and mixed evenly. d) It was thoroughly oscillated in a 96-well microplate oscillator for 2 minutes to allow the cells to undergo full lysis. e) It was stored away from light at room temperature for 15 minutes before carrying out luminescent signal detection to ensure signal stability. f) An EnSpire multi-function plate reader was used at 570 nm to read the luminescent signals. g) Data was processed and analyzed.

LoVo colon cancer cells = test: CellTiter-Glo luminescent cell viability assay, LoVo colon cancer cells; conditions: Homo sapiens, 72 hours
Text: as §1, with “for LoVo” for “for HUH-7”, “of 8000.” for “of 6000.”

[1] = system: SKOV-3 human ovarian cancer cells; test: CellTiter-Glo luminescent cell viability assay, SKOV-3 ovarian cancer cells; conditions: SK-OV-3, SKOV-3 cells, 72 hours
[2] = system: NCI-H661 large-cell lung cancer cells; test: CellTiter-Glo luminescent cell viability assay, NCI-H661 large-cell lung cancer cells; conditions: Homo sapiens, 72 hours
[3] = system: NCI-H2141 lung cancer cells; test: CellTiter-Glo luminescent cell viability assay, NCI-H2141 lung cancer cells; conditions: 72 hours

pEC50 (HUH-7 liver cancer cells; FIG. 2, liver cancer (HUH-7)): 4.38
pIC50 (HUH-7 liver cancer cells; HUH-7 cells): 4.50
pIC50 (LoVo colon cancer cells): 4.48
pIC50 [1]: ≤ 4.00
pIC50 [2]: ≤ 4.00
pEC50 ([3]; FIG. 4, lung cancer (NCI-H2141)): 4.47
pIC50 ([3]; NCI-H2141 cells): 4.46
SMILES: CC(CN1c2ccccc2Sc2ccccc21)N(C)C (stereo not shown) [promethazine]
